Activity calls are given as the source filed them.
What was measured:
[1] = intracellular Trypanosoma cruzi inhibitors in host cells – cell-based, plate reader, cherry-pick samples, set 3, dose response (AID 651818); type: functional;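 further: compounds incubated with infected cells for about four days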
Protein skinhead-1 = target: T1, Protein skinhead-1 (Caenorhabditis elegans, UniProt P34707); type: functional
T1 sequence (P34707 whole entry): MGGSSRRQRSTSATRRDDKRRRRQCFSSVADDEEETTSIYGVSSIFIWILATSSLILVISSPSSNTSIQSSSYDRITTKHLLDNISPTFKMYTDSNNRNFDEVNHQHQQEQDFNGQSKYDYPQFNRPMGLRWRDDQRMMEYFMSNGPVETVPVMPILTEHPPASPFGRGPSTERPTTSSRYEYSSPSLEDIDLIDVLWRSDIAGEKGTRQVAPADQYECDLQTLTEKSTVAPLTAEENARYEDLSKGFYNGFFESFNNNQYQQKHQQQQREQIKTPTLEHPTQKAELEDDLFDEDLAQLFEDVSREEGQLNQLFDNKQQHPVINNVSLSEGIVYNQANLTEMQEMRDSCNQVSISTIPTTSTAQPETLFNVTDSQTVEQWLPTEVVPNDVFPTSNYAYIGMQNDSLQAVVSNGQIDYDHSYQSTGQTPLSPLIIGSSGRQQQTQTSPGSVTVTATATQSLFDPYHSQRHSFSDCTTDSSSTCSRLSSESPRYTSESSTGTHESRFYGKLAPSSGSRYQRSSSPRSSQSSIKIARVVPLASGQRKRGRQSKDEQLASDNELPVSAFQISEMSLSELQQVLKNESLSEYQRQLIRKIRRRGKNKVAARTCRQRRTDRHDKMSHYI

P388/ADR = experiment: cells; type: functional; conditions: Mus musculus
SN12K1 = experiment: cells; type: functional; conditions: Homo sapiens
P388 = experiment: cells; type: functional; conditions: Mus musculus
[2] = target: FAD-linked sulfhydryl oxidase ALR (Homo sapiens, UniProt P55789); experiment: ALR-catalysed DTT oxidation blockers – biochemical, H2O2 detection, luminescence, cherry-pick, dose response (AID 493248)
FAD-linked sulfhydryl oxidase ALR, sequence (P55789 whole entry): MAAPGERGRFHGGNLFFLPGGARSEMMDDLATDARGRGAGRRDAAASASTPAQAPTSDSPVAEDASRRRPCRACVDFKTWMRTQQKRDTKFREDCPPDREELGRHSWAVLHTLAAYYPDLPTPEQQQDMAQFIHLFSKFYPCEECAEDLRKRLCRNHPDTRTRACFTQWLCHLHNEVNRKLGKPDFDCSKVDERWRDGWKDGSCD

[3] = target: T2, Polyadenylate-binding protein 1 (Homo sapiens, UniProt P11940); experiment: MLLE binding blockers, Cy5 peptide tracer – biochemical, fluorescence polarization, Cy5-PAM2 peptide, secondary, miRNA deadenylation inhibitor project, dose response (AID 602260); type: functional; conditions: read-out: IC50_Mean
T2 sequence (P11940 whole entry, the tested form may be a part): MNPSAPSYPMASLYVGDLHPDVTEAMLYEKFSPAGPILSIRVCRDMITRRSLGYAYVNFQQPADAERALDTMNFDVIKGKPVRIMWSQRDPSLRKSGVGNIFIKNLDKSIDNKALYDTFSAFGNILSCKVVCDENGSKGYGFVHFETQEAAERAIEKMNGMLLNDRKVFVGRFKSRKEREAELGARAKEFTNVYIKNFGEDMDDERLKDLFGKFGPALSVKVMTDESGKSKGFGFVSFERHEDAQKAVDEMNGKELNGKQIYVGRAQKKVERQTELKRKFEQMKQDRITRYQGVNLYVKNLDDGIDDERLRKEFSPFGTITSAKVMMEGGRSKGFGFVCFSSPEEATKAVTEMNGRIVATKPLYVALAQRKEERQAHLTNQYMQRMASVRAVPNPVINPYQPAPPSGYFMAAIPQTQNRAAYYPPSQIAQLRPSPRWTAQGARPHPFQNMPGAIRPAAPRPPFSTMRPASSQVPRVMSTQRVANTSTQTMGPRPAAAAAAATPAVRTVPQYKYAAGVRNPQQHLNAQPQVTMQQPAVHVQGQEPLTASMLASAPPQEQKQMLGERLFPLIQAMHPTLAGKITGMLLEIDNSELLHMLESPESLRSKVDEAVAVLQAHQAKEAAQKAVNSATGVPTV

[4] = target: T2, Polyadenylate-binding protein 1; experiment: MLLE domain peptide-binding blockers, IC50 – biochemical, fluorescence polarization, FITC-PAM2 peptide, dose response (AID 602259); type: functional; conditions: read-out: IC50_Mean

**Q.** Which AC50 [1] does the source give for `C[C@H](CO)N1C[C@H](C)[C@H](CN(C)Cc2ccc(C(=O)Nc3ccccc3N)cc2)Oc2c(NC(=O)Nc3ccc(F)cc3)cccc2C1=O` here?
**A.** Its AC50 is 1.06 µM (active).

**Q.** With `c1ccc(-c2ccc(-c3nc(-c4cccnc4)no3)cc2)cc1` as the compound, how does the IC50 (Protein skinhead-1) read?
**A.** Its IC50 is > 100 µM (inactive).

**Q.** With `C[C@@H]1CN([C@@H](C)CO)C(=O)c2cccc(NC(=O)Nc3ccc4c(c3)OCO4)c2O[C@@H]1CN(C)Cc1ccc(Oc2ccccc2)cc1` as the compound, how does the AC50 [1] read?
**A.** Its AC50 is 3.77 µM (active).

**Q.** With `COC(=O)c1cccc(N[C@@H]2c3cc4c(cc3C(c3cc(OC)c(O)c(OC)c3)[C@H]3C(=O)OCC32)OCO4)c1` (some centres not stated) as the compound, how does the GI50 (P388/ADR) read?
**A.** The GI50 was 0.271 µM (active).

**Q.** What about the GI50 (SN12K1) of the same compound?
**A.** The GI50 was 0.23 µM (active).

**Q.** What about the GI50 (P388) of the same compound?
**A.** Its GI50 is 0.0103 µM (active).

**Q.** Which AC50 [2] does the source give for `O=C(NCc1cccnc1)c1ccc2c(c1)N(Cc1ccccc1)CCS2` here?
**A.** Its AC50 is 3.31 µM (active).

**Q.** With `COc1ccc(Cc2nn(C3OC(COC(C)=O)C(OC(C)=O)C(OC(C)=O)C3OC(C)=O)c(=S)n(-c3ccc(OC)cc3)c2=O)cc1` (configuration not stated) as the compound, how does the GI50 (P388/ADR) read?
**A.** The GI50 was > 100 µM (inactive).

**Q.** And the GI50 (SN12K1)?
**A.** The GI50 was > 100 µM (inactive).

**Q.** And the GI50 (P388)?
**A.** The GI50 was > 100 µM (inactive).

**Q.** For `Cc1nc2ccccc2c(=O)n1Nc1ccc(C(=O)O)cc1`, which GI50 (P388/ADR) is on record?
**A.** Its GI50 is > 100 µM (inactive).

**Q.** And the GI50 (SN12K1)?
**A.** The GI50 was > 100 µM (inactive).

**Q.** And the GI50 (P388)?
**A.** The GI50 was > 100 µM (inactive).

**Q.** Which GI50 (P388/ADR) does the source give for `O=C1NC(=O)C2C3C=CC(C12)C1C2C(=O)NC(=O)C2C31` (configuration not stated) here?
**A.** Its GI50 is 122 µM (inactive).

**Q.** What about the GI50 (SN12K1) of the same compound?
**A.** The GI50 was 85.3 µM (inactive).

**Q.** What about the GI50 (P388) of the same compound?
**A.** The GI50 was 21 µM (inactive).

**Q.** For `Fc1ccc(-c2ccnc(S)n2)cc1`, which AC50 [2] is on record?
**A.** The AC50 was 0.301 µM (active).

**Q.** What about the IC50 [3] of the same compound?
**A.** Its IC50 is > 66 µM (inactive).

**Q.** What about the IC50 [4] of the same compound?
**A.** The IC50 was > 66 µM (inactive).

**Q.** Which AC50 [1] does the source give for `C[C@@H]1CCCCO[C@H](CN(C)C(=O)Nc2ccc(C(F)(F)F)cc2)[C@@H](C)CN([C@H](C)CO)C(=O)c2cc(NS(=O)(=O)c3ccc(Cl)cc3)ccc2O1` here?
**A.** The AC50 was 4.76 µM (active).

**Q.** Which AC50 [1] does the source give for `C[C@H]1CN([C@@H](C)CO)C(=O)c2cccc(NC(=O)CCCCCC(=O)Nc3ccccc3N)c2O[C@H]1CN(C)Cc1ccc(Cl)c(Cl)c1` here?
**A.** The AC50 was 3.18 µM (active).

**Q.** With `O=C1N=C2SCCN2/C1=C\c1ccccc1Cl` as the compound, how does the IC50 [3] read?
**A.** The IC50 was > 66 µM (inactive).

**Q.** And the IC50 [4]?
**A.** Its IC50 is > 66 µM (inactive).

**Q.** Which AC50 [2] does the source give for `O=C1CC(=O)N(c2ccccc2)N1c1ccccc1` here?
**A.** The AC50 was 4.37 µM (active).

**Q.** Which GI50 (P388/ADR) does the source give for `CC(C)[C@](O)(C(=O)OCC1=CCN2CC[C@@H](O)[C@@H]12)[C@H](C)O` here?
**A.** Its GI50 is > 375 µM (inactive).

**Q.** What about the GI50 (SN12K1) of the same compound?
**A.** Its GI50 is > 375 µM (inactive).

**Q.** What about the GI50 (P388) of the same compound?
**A.** Its GI50 is > 375 µM (inactive).

Source: ChEMBL document CHEMBL1201862, “PubChem BioAssay data set” (2004)
